Assay results from patent publication US20110201023A1, “MANNOSE 6-PHOSPHATE-BINDING ANTIBODIES AND THEIR USES” (UNIVERSITATSKLINKUM HAMBURGEPPENDORF, priority 2008, published 2011).
Each block holds one molecule with its values, some of them ahead of it.

What was measured:
scFv M6P-1 = experiment: ELISA inhibition study: binding of scFv M6P-1 to immobilized PMP-BSA; set-up: species or system rabbit; settings: for IC50: scFv 0.6 μg/ml preincubated 1 h at 37° C. with 0.01 to 100 mM inhibitor, 45 pmol/cup PMP-BSA, read-out: 50% inhibition (IC50 value) of scFv M6P-1 binding to PMP-BSA; for inhibition of the binding of scFv M6P-1 to PMP-BSA: even at high concentrations (0.01 to 100 mM tested)
Description: ELISA was performed according to the protocol published in Phage-Display: A Laboratory Manual, Cold Spring Harbor Laboratory Press, New York (2001), protocol 19.8, pages 19.29-19.31. For ELISA using monoclonal phage or soluble scFv, PMP-BSA was immobilized by addition of 2.25 pmol neoglycoconjugate (45 pmol PMP ligand, solution in 50 mM carbonate buffer, pH 9.2) to each cup of the ELISA plates (MaxiSorp, Nunc) and overnight incubation at 4° C. Phages were detected using an anti-M13 monoclonal antibody (mAb) HRP-conjugate (GE Healthcare, Freiburg, Germany) and diammonium 2,2′-azino-bis(3-ethylbenzothiazoline-6-sulfonate (AzBTS-(NH4)2, Sigma-Aldrich) as substrate. For scFv-ELISA against PMP-BSA, purified scFv was added at a starting concentration of 5 μg/ml. Bound scFv was detected by incubation with anti-c-myc mAb (gift from Dr. C. R. MacKenzie, NRC of Canada, Ottawa, Canada) and HRP-conjugated goat-anti-mouse IgG H+L (Dianova, Hamburg, Germany). For ELISA inhibition studies, 45 pmoles PMP-BSA were immobilized on ELISA plates. Monomeric scFv M6P-1 was freshly prepared by gelfiltration (see above). Antibody fragment scFv (0.6 μg/ml final concentration) was preincubated for 1 h at 37° C. with or without 0.01 to 100 mM of mannose, glucose, glucose-6-phosphate (Glc6P), Fru1P, or Man6P. 50 μl scFv M6P-1 were added to PMP-BSA (45 pmol/cup ligand concentration). Bound scFv M6P-1 was quantified after incubation (i) with an antibody directed against the c-myc tag of the antibody scFv M6P-1 and (ii) a HRP-conjugated goat-anti-mouse H/L antibody. The […] reaction was measured spectrophotometrically at OD405. All data were measured in quadruplicates and the standard deviation from the mean is indicated. The data were analyzed using Origin version 6.0 software (MicroCal, Northampton, USA) and fitted to a 4 parameter logistic function. The data obtained for inhibition by Man6P and Fru1P were globally fitted to the four replicate data sets, each separately.

[1] = system: scFv M6P-1 conjugated beads / [125I]ASA (human arylsulfatase A); experiment: Immunoprecipitation of [125I]ASA with scFv M6P-1 conjugated beads; format: binding
Description: Monomeric or dimeric scFv M6P-1 (about 1 mg/ml in PBS, pH 7.2) isolated by gel filtration (see above) was chemically immobilized to AminoLink Plus Coupling gel beads (Pierce, USA) following the suppliers instructions (1 mg scFv M6P-1 was coupled to 2 ml of settled beads). Human arylsulfatase A (ASA)(kindly provided by Dr. […]; Institute for Biochemistry, University of Bielefeld, Germany) was purified by affinity chromatography from media of BHK cells which overexpress the enzyme as described by Sommerlade et al. (1994) Biochem. J. 297, 123-130 and iodinated with IODO-GEN (Pierce) according to the manufacturer's instructions yielding [^125I]ASA with a specific activity of 2 μCi/μg. [^125I]ASA (400,000 cpm) was incubated with 50 μl scFv M6P-1 conjugated beads in 10 mM phosphate buffered saline pH 7.4 containing 0.05% Triton X-100 in a final volume of 0.5 ml in the absence or presence of increasing concentrations of Man6P for 10 h at 4° C. Subsequently, the beads were spun down at 1,200×g for 20 sec, and the supernatant was removed. The beads were washed three times with ice-cold binding buffer, twice with 1 mM phosphate buffered saline pH 7.4, and solubilized in SDS sample buffer. After removal of the beads, the supernatants were separated by SDS-PAGE (10% acrylamide), and the [^125I]ASA was visualized by autoradiography using Kodak films. The intensity of the [^125I]-labeled polypeptides was evaluated by densitometry. Alternatively, the [^125I]-labeled polypeptides were excised from the dried gel and counted in a γ-counter (Wizard 1470, Wallac, Turku, Finland).

[2] = Isothermal titration microcalorimetry; settings: dimeric scFv M6P-1 in PBS pH 7.2; 10 mM Man6P injected; read-out: Kd for the binding of scFv M6P-1 to Man6P
Description: The comparison of IC50 values allows the ranking of different ligands according to their relative affinities, however, the absolute affinities in terms of Kd can not be obtained. Therefore, isothermal titration microcalorimetry measurements using Man6P as a ligand were performed. Purified dimeric scFv M6P-1 obtained after gel filtration (both a monomer and a dimer fraction are obtained) was concentrated in Centriprep YM-10 (Millipore) to a final concentration of 2.7 mg/ml in PBS, pH 7.2 and dialysed for 1 h at 20° C. against 500 ml of PBS. The same dialysis buffer was used for preparation of a 10 mM solution of Man6P (Na^+ salt, Sigma-Aldrich). Microcalorimetric experiments were performed on an MCS isothermal titration calorimeter (Microcal Inc., Northampton, Mass., USA). The microcalorimeter cell was filled with the antibody solution (volume=1.5 ml) and Man6P in dialysis buffer loaded into the syringe of the microcalorimeter. Both solutions were thoroughly degassed prior to loading. After temperature equilibration, the ligand was injected into the cell in 4 μl portions and the evolved heat measured with the first injection (1 μl) not considered for data analysis. […] Dissociation constants were determined using the MicroCal Origin version 2.9 analysis software and non-linear least squares curve fitting (1 set of binding sites).

PMP-BSA = experiment: Phage ELISA against PMP-BSA; format: binding; settings: 1:3 (v/v) dilutions of phage
Description: The reactivity of the enriched polyclonal phage was tested in an ELISA checkerboard titration against different concentrations of PMP-BSA (3-100 pmol/cup calculated for PMP concentration). At 50 pmol/cup reactivity of the polyclonal phage was observed selectively for PMP-BSA but not for BSA. BstOI (Promega GmbH, Germany) restriction digest of 20 colony PCR products indicated the presence of 7 different clones (4× type A, 10× type B, 2× type C and 1× types D-G). Twelve colonies representing the different types of sequences (5× type B, 2× type A, 1× each of types C-G) were selected for phage production and 1:3 (v/v) dilutions of phage were tested in ELISA against PMP-BSA. […]
ELISA was performed according to the protocol published in Phage-Display: A Laboratory Manual, Cold Spring Harbor Laboratory Press, New York (2001), protocol 19.8, pages 19.29-19.31. […] Phages were detected using an anti-M13 monoclonal antibody (mAb) HRP-conjugate (GE Healthcare, Freiburg, Germany) and diammonium 2,2′-azino-bis(3-ethylbenzothiazoline-6-sulfonate (AzBTS-(NH4)2, Sigma-Aldrich) as substrate. For scFv-ELISA against PMP-BSA, purified scFv was added at a starting concentration of 5 μg/ml. Bound scFv was detected by incubation with anti-c-myc mAb (gift from Dr. C. R. MacKenzie, NRC of Canada, Ottawa, Canada) and HRP-conjugated goat-anti-mouse IgG H+L (Dianova, Hamburg, Germany).

- IC50 (scFv M6P-1): 1100 µM
Molecule: O=P(O)(O)OC[C@@]1(O)OC[C@@H](O)[C@@H](O)[C@@H]1O [Fru1P, β-D-fructopyranose-1-phosphate]

- inhibition of the binding of scFv M6P-1 to PMP-BSA (scFv M6P-1): Neither
Molecule: O=C[C@@H](O)[C@@H](O)[C@H](O)[C@H](O)CO [mannose]

- IC50 (scFv M6P-1): 2300 µM
- inhibition of binding of [125I]-ASA to the antibody beads ([1]; Man6P in a concentration of more than 2.5 mM): completely inhibited
- Ki ([1]; calculated from densitometric evaluation of autoradiographs or radioactivity in excised bands): 100 µM
Molecule: O=C[C@@H](O)[C@@H](O)[C@H](O)[C@H](O)COP(=O)(O)O [Man6P, mannose 6-phosphate]

- inhibition of the binding of scFv M6P-1 to PMP-BSA (scFv M6P-1): Neither
- effect on binding of [125I]-ASA to the antibody beads ([1]; 5 mM): no effect
Molecule: O=C[C@H](O)[C@@H](O)[C@H](O)[C@H](O)COP(=O)(O)O [Glc6P, glucose 6-phosphate]

- total offered [125I]-ASA bound specifically to the scFv M6P-1 conjugated beads ([1]; 10 h at 4° C., absence of Man6P): 20-25%
- Kd [2]: 28 µM
B1: scFv M6P-1: recombinant rabbit single-chain antibody fragment which specifically binds mannose 6-phosphate; VL SEQ ID NO:7, VH SEQ ID NO:8 (antibody, listed as Oryctolagus cuniculus, V domains shown)
VH: QSVKESEGDLVKPGASLTLTCKASGFDFTWYTMNWVRQAPGKGLEWIACIGAGVYGSNYYASWAKGRFTISKASSTTVTLQMTSLTVADTATYFCARDGINGGYDIWGPGTLVTVSS
VL: ELVMTQTESPVSAAVGGTVTIKCQSSQSVYNNRLAWYQQKPGQRPKLLIYSASTLASGVPSRFKGSGSGTQFTLTISDLEWGDAATYYCHGGYRSNDDRYAFSGGTELEIL
modifications: scFv linker not given
- reactivity of monoclonal phage in ELISA against PMP-BSA (PMP-BSA): reacted
